Experiments:
HepG2 = assay: Antiproliferative activity against human HepG2 cells after 48 hrs by MTT assay; format: functional, cell-based; conditions: HepG2, 48 h
A549 = assay: Antiproliferative activity against human A549 cells after 48 hrs by MTT assay; format: functional, cell-based; conditions: A549, 48 h
MCF7 = assay: Antiproliferative activity against human MCF7 cells after 48 hrs by MTT assay; format: functional, cell-based; conditions: MCF7, 48 h
HCT-116 = assay: Antiproliferative activity against human HCT116 cells after 48 hrs by MTT assay; format: functional, cell-based; conditions: HCT-116, 48 h
L02 = assay: Antiproliferative activity against human L02 cells after 48 hrs by MTT assay; format: cell-based; conditions: L02, 48 h
HUVEC = assay: Antiproliferative activity against human HUVEC cells after 48 hrs by MTT assay; format: cell-based

| Compound | IC50 (HepG2) | IC50 (A549) | IC50 (MCF7) | IC50 (HCT-116) | IC50 (L02) | IC50 (HUVEC) |
| --- | --- | --- | --- | --- | --- | --- |
| N#CC1=C(N)Oc2c(c3nc4ccccc4nc3c3ccccc23)C12C(=O)N(Cc1cnnn1-c1ccc(Br)cc1)c1ccccc12 (centres undefined) | > 50 µM | 44.3 µM | 36.6 µM | > 50 µM | > 50 µM | > 50 µM |
| N#CC1=C(N)Oc2c(N)cc3nc4ccccc4nc3c2C12C(=O)N(Cc1cnnn1-c1ccc(Cl)cc1)c1ccccc12 (centres undefined) | > 50 µM | > 50 µM | > 50 µM | > 50 µM | > 50 µM | > 50 µM |
| COc1ccc(OC)c(-n2nncc2CN2C(=O)C3(C(C#N)=C(N)Oc4c(N)cc5nc6ccccc6nc5c43)c3ccccc32)c1 (centres undefined) | 45.1 µM | 28.1 µM | 28.1 µM | > 50 µM | > 50 µM | > 50 µM |
| CCOc1ccccc1-n1nncc1CN1C(=O)C2(C(C#N)=C(N)Oc3c2c2nc4ccccc4nc2c2ccccc32)c2ccccc21 (centres undefined) | > 50 µM | > 50 µM | > 50 µM | > 50 µM | > 50 µM | > 50 µM |
| CCc1cccc(CC)c1-n1nncc1CN1C(=O)C2(C(C#N)=C(N)Oc3c(N)cc4nc5ccccc5nc4c32)c2ccccc21 (centres undefined) | 16.5 µM | > 50 µM | > 50 µM | 37.6 µM | > 50 µM | > 50 µM |
| N#CC1=C(N)Oc2c(c3nc4ccccc4nc3c3ccccc23)C12C(=O)N(Cc1cnnn1-c1ccc([N+](=O)[O-])cc1)c1ccccc12 (centres undefined) | > 50 µM | > 50 µM | > 50 µM | > 50 µM | > 50 µM | > 50 µM |
| Cc1ccc(-n2nncc2CN2C(=O)C3(C(C#N)=C(N)Oc4c3c3nc5ccccc5nc3c3ccccc43)c3ccccc32)c(C)c1 (centres undefined) | > 50 µM | > 50 µM | > 50 µM | > 50 µM | > 50 µM | > 50 µM |
| CCOc1ccc(-n2nncc2CN2C(=O)C3(C(C#N)=C(N)Oc4c3c3nc5ccccc5nc3c3ccccc43)c3ccccc32)cc1 (centres undefined) | > 50 µM | 25.2 µM | > 50 µM | > 50 µM | > 50 µM | > 50 µM |
| CC[C@@]1(O)C(=O)OCc2c1cc1n(c2=O)Cc2cc3cc(O)ccc3nc2-1 [HYDROXYCAMPTOTHECIN] | 10.3 µM | – | 2.8 µM | 3.2 µM | 20.4 µM | 18.2 µM |

More lines, main results first:

| IC50 (HepG2) | IC50 (A549) | IC50 (MCF7) | IC50 (HCT-116) | Compound | IC50 (L02) | IC50 (HUVEC) |
| --- | --- | --- | --- | --- | --- | --- |
| > 50 µM | 31.7 µM | > 50 µM | > 50 µM | Cc1ccccc1-n1nncc1CN1C(=O)C2(C(C#N)=C(N)Oc3c(N)cc4nc5ccccc5nc4c32)c2ccccc21 (centres undefined) | > 50 µM | > 50 µM |
| > 50 µM | > 50 µM | > 50 µM | > 50 µM | Cc1ccc(-n2nncc2CN2C(=O)C3(C(C#N)=C(N)Oc4c(N)cc5nc6ccccc6nc5c43)c3ccccc32)cc1C (centres undefined) | > 50 µM | > 50 µM |
| 17.9 µM | 24.6 µM | 24.6 µM | 10.3 µM | CCc1ccccc1-n1nncc1CN1C(=O)C2(C(C#N)=C(N)Oc3c(N)cc4nc5ccccc5nc4c32)c2ccccc21 (centres undefined) | 22.9 µM | > 50 µM |
| > 50 µM | > 50 µM | > 50 µM | > 50 µM | Cc1ccc(C)c(-n2nncc2CN2C(=O)C3(C(C#N)=C(N)Oc4c(N)cc5nc6ccccc6nc5c43)c3ccccc32)c1 (centres undefined) | > 50 µM | > 50 µM |
| > 50 µM | 12.3 µM | > 50 µM | > 50 µM | Cc1cccc(-n2nncc2CN2C(=O)C3(C(C#N)=C(N)Oc4c(N)cc5nc6ccccc6nc5c43)c3ccccc32)c1 (centres undefined) | > 50 µM | > 50 µM |
| 38 µM | 27.4 µM | 30.7 µM | 12.4 µM | N#CC1=C(N)Oc2c(N)cc3nc4ccccc4nc3c2C12C(=O)N(Cc1cnnn1-c1ccccc1Br)c1ccccc12 (centres undefined) | 29.2 µM | 34.2 µM |
